Results on two molecules are retold here after patent US20160038468A1 (priority 2013, published 2016).

One experiment concerns B. fragilis, ATCC 25285. The conditions noted are these: agar dilution testing, from CLSI Table 5; cited from earlier work. In general terms: Agar dilution tests growth on a series of plates holding different concentrations.
Experiment [1] relates to B. thetaiotaomicron, ATCC 29741. The conditions noted are these: agar dilution testing, from CLSI Table 5; cited from earlier work.
Experiment [2] concerns Clostridium difficile, ATCC 700057. The conditions noted are these: agar dilution testing, from CLSI Table 5; cited from earlier work.
The test system of the next experiment is Lactobacilli. The conditions noted are these: pathogens: Gardnerella vaginalis, Mobiluncus spp, Bacteroides bivius-disiens; cited from earlier work.
Experiment [3] has as its system bacterial vaginosis (BV) related organisms. Description: Agar dilution MIC (CLSI), 411 vaginal BV related organisms overall. The class given is cell-based. Here is the method: The method used was the reference method approved by the Clinical and Laboratory Standards Institute (CLSI). The CLSI is considered the gold standard for determining the lowest concentration of an antimicrobial agent that prevents growth of a microorganism in an agar dilution susceptibility test referred to as the minimal inhibitory concentration (MIC).
A total of 411 unique microbial isolates recovered from the human vagina of US women from a period of time from 2009 to 2012 were tested for antimicrobial susceptibility by the agar dilution method. A total of 13 analytical runs were conducted in order to analyze all of the samples. See, Example 1.
A total of 411 unique microbial isolates recovered from the human vagina from 2009-2012 were tested for antimicrobial susceptibility by the agar dilution method. This procedure followed the guidelines of the Clinical Laboratory Standard Institute reference agar dilution method (CLSI).
The MIC endpoint was read on the test plate. The MIC is that concentration at which a marked reduction occurs in the appearance of growth on the test plate as compared to the amount that of growth on the control plate. Examples of a marked change in growth include a change from confluent growth to a haze, less than 10 tiny colonies, or one to three normal sized colonies. The illustrated figures found in the CLSI manual should be used as a guide.

`Cc1ncc([N+](=O)[O-])n1CCO` [Metronidazole]: the “Acceptable Range of MIC for control strain” value with B. fragilis, ATCC 25285 was 0.25 to 1 µg/mL; in experiment [1], 0.5 to 2 µg/mL.
In the case of `CO[C@H]1/C=C/O[C@@]2(C)Oc3c(C)c(O)c4c(O)c(c5c(nc6cc(C)ccn65)c4c3C2=O)NC(=O)/C(C)=C\C=C\[C@H](C)[C@H](O)[C@@H](C)[C@@H](O)[C@@H](C)[C@H](OC(C)=O)[C@@H]1C` [Rifaximin], the “Acceptable Range of MIC for control strain” value in experiment [2] was 0.0039 to 0.0156 µg/mL. Also, the “inhibitory action (MIC50 and MIC90) against Lactobacilli compared with action against pathogenic bacteria” value in the experiment with Lactobacilli is listed as “equal to, or even higher than”. Moreover, the “susceptibility of pathogenic strains in respect to clindamycin” value in experiment [3] (Prevotella, Anaerococcus, Finegoldia, Peptoniphilus and Atopobium strains) was “higher susceptibility”. Further, in experiment [3] (Prevotella, Anaerococcus, Peptoniphilus, Atopobium, Megasphera and Mobiluncus strains), the “susceptibility of pathogenic strains in respect to metronidazole” value is reported as “higher susceptibility”. In addition, in experiment [3] (in particular when Prevotella strains are present), the “efficacy against all pathogen vaginal bacteria judged from MICs, in comparison to metronidazole and clindamycin” value is on record as “more efficacious”.
